This experiment deals with α7 nAChR (Rattus norvegicus (Rat), UniProt Q05941). The experiment in a line: [3H]-methyllycaconitine binding assay, rat brain membranes. To be noted: inhibition of [3H]-methyllycaconitine binding to rat brain membranes; Ki=IC50/(1+L/KD). The protocol: 1. Determination of the Affinity of Test Substances for α7 nAChR by Inhibition of [^3H]-Methyllycaconitine Binding to Rat Brain Membranes
The [^3H]-methyllycaconitine binding assay is a modification of the method described by Davies et al. (Neuropharmacol. 1999, 38, 679-690).
Rat brain tissue (hippocampus or whole brain) is homogenized in homogenization buffer (10% w/v). [0.32 M sucrose, 1 mM EDTA; 0.1 mM phenylmethylsulfonyl fluoride (PMSF), 0.01% (w/v) NaN3, pH 7.4, 4° C.] at 600 rpm in a glass homogenizer. The homogenate is centrifuged (1000×g, 4° C., 10 min) and the supernatant is removed. The pellet is resuspended (20% w/v) and the suspension is centrifuged (1000×g, 4° C., […]). The two supernatants are combined and centrifuged (15 000×g, 4° C., 30 min). The pellet obtained in this way is referred to as the P2 fraction.
The P2 pellet is washed twice with binding buffer (50 mM Tris-HCl, 1 mM MgCl2, 120 mM NaCl, 5 mM KCl, 2 mM CaCl2, pH 7.4), and centrifuged (15 000×g, 4° C., 30 min).
The P2 membranes are resuspended in binding buffer and incubated in a volume of 250 μl (amount of membrane protein 0.1-0.5 mg) in the presence of 1-5 nM [^3H]methyllycaconitine, 0.1% (w/v) BSA (bovine serum albumin) and various concentrations of the test substance at 21° C. for 2.5 h. The non-specific binding is determined by incubation in the presence of 1 μM α-bungarotoxin or 100 μM nicotine or 10 μM MLA (methyllycaconitine).
The incubation is stopped by adding 4 ml of PBS (20 mM Na2HPO4, 5 mM KH2PO4, 150 mM NaCl, pH 7.4, 4° C.) and filtering through type A/E glass fiber filters (Gelman Sciences) which have previously been placed in 0.3%. (v/v) polyethyleneimine (PEI) for 3 h. The filters are washed twice with 4 ml of PBS (4° C.), and the bound radioactivity is determined by scintillation measurement. All the assays are carried out in triplicate. The dissociation constant Ki of the test substance was determined from the IC50 of the compounds (concentration of the test substance at which 50% of the ligand bound to the receptor is displaced), the dissociation constant KD and the concentration L of [^3H]-methyllycaconitine using the equation Ki=IC50/(1+L/KD).

Where a name gives a salt, the structure may show the parent alone.

α7 nAChR, sequence (Q05941 23-502): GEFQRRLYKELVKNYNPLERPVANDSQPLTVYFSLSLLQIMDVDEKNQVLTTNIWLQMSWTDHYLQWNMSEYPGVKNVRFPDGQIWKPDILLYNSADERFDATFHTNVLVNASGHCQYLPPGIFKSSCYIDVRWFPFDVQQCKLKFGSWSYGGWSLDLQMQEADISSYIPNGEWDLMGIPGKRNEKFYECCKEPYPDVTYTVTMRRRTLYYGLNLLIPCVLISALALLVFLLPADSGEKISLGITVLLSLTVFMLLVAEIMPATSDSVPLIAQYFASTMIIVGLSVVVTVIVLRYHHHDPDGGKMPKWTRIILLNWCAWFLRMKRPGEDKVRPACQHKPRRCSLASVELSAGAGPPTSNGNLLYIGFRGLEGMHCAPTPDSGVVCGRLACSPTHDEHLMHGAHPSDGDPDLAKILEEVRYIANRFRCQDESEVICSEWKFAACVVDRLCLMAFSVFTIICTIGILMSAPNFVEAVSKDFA

Take `O=C(CC1CN2CCC1CC2)Nc1cc2cccc(Br)c2s1` (stereo not shown) [Example 1, 2-(1-Azabicyclo[2.2.2]oct-3-yl)-N-(7-bromo-1-benzothien-2-yl)acetamide hydrochloride]: the Ki (as a rule, a dissociation constant, usually derived from enzyme kinetics or from competition with a known ligand) came to 120 nM. Under `O=C(CC1CN2CCC1CC2)Nc1ccc2cccc([N+](=O)[O-])c2c1` (stereo not shown) [Example 5, 2-(1-Azabicyclo[2.2.2]oct-3-yl)-N-(8-nitro-2-naphthyl)acetamide hydrochloride] stands 170 nM. Under `O=C(CC1CN2CCC1CC2)Nc1ccc2ccccc2c1` (stereo not shown) [Example 4, 2-(1-Azabicyclo[2.2.2]oct-3-yl)-N-(2-naphthyl)acetamide hydrochloride] stands 42 nM; under `O=C(CC1CN2CCC1CC2)Nc1ccc2cccnc2c1` (stereo not shown) [Example 3, 2-(1-Azabicyclo[2.2.2]oct-3-yl)-N-(7-quinolinyl)acetamide hydrochloride], 280 nM.

For the origin of these results see patent publication US9000008B2, “Amides of acetic and propionic acids” (Bayer Intellectual Property GmbH, priority 2002, dated 2015).
